Results published in patent US11420947B2, “(S)-n-hydroxy-2-(2-(4-methoxyphenyl)butanamido)thiazole-5-carboxamide and pharmaceutically acceptable salts thereof” (TRANSLATIONAL DRUG DEVELOPMENT, LLC, priority 2018, dated 2022).

Assays:
Experiment in all cases: CellTiter-Glo cell viability assay
Type in all cases: cell-based
[1] = system: N87; details: N87, GASTRIC, Carcinoma, 72 hours
Procedure: (§1) Cell viability in the presence of varying concentrations of the above listed compounds at different time points was used to assess cytotoxicity and the effect of the compounds on cell proliferation.
(§2) Cell viability was measured by the CellTiter-Glo® cell viability assay from Promega (Madison, Wis.). The CellTiter-Glo® Luminescent Cell Viability Assay is a homogeneous method to determine the number of viable cells in culture based on quantitation of the ATP present, which signals the presence of metabolically active cells. Following treatment, CellTiter-Glo® is added to treatment wells and incubated at 37° C. luminescence values were measured at using a Molecular Devices Spectramax microplate reader
(§3) Cells were grown to 70% confluency, trypsinized, counted, and seeded in 96 well flat-bottom plates at a final concentration of 2.5×10^3-5×10^3 cells/well (Day 0). Cells were allowed to incubate in growth media for 24 hours. Treatment with the test agents or standard agents began on Day 1 and continued for 72 hours. At the 72-hour timepoint, treatment containing media was removed. Viable cell numbers are quantified by the CellTiter-Glo® cell viability assay as described above. Results from these studies were used to calculate an IC50 value (concentration of drug that inhibits cell growth by 50 percent of control) for each compound.
(§4) For single agent and combination studies, data from each experiment was collected and expressed as % Cell Growth using the following calculation: % Cell Growth=(ftest/fvehicle)×100
(§5) Where test is the fluorescence of the tested sample, and fvehicle is the fluorescence of the vehicle in which the drug is dissolved. Dose response graphs and IC50 values were generated using Prism 6 software (GraphPad) using the following equation: Y=(Top-Bottom)/(1+10^((logIC^50^-X)-HillSlope))

[2] = system: Panc-1; details: Homo sapiens; Panc-1, PANCREAS, Pancreatic, 72 hours
Procedure: as §1, §2, §3, §4, §5

[3] = system: Nalm-6; details: Homo sapiens; Nalm-6, HEMATOPIETIC, ALL, 72 hours
Procedure: as §1, §2, §3, §4, §5

[4] = system: MDA-MB-231; details: Homo sapiens; MDA-MB-231, BREAST, TNBC, 72 hours
Procedure: as §1, §2, §3, §4, §5

[5] = system: SN12CCP; details: SN12CCP, RENAL, RCC, 72 hours
Procedure: as §1, §2, §3, §4, §5

[6] = system: Cal-27; details: Homo sapiens; Cal-27, H&N SQUAMOUS CELL, Tongue, 72 hours
Procedure: as §1, §2, §3, §4, §5

[7] = system: MV411; details: Homo sapiens, MV4-11; MV411, HEMATOPIETIC, AML, 72 hours
Procedure: as §1, §2, §3, §4, §5

[8] = system: SNU-1; details: Homo sapiens, SNU1; SNU-1, GASTRIC, Carcinoma, 72 hours
Procedure: as §1, §2, §3, §4, §5

[9] = system: A375; details: Homo sapiens, A-375; A375, MELANOMA, Malignant Melanoma, 72 hours
Procedure: as §1, §2, §3, §4, §5

[10] = system: KLE; details: Homo sapiens; KLE, ENDOMETRIAL, 72 hours
Procedure: as §1, §2, §3, §4, §5

[11] = system: THP-1; details: Homo sapiens; THP-1, HEMATOPIETIC, AML, 72 hours
Procedure: as §1, §2, §3, §4, §5

[12] = system: Hs695T; details: Homo sapiens, Hs 695T; Hs695T, MELANOMA, LN Met, 72 hours
Procedure: as §1, §2, §3, §4, §5

[13] = system: MeWo; details: Homo sapiens; MeWo, MELANOMA, LN Met, 72 hours
Procedure: as §1, §2, §3, §4, §5

[14] = system: MCF7; details: Homo sapiens; MCF7, BREAST, ER + BCC, 72 hours
Procedure: as §1, §2, §3, §4, §5

[15] = system: H1650; details: Homo sapiens, NCI-H1650; H1650, LUNG, NSCLC, 72 hours
Procedure: as §1, §2, §3, §4, §5

[16] = system: Capan-2; details: Homo sapiens; Capan-2, PANCREAS, Pancreatic, 72 hours
Procedure: as §1, §2, §3, §4, §5

[17] = system: ACHN; details: Homo sapiens; ACHN, RENAL, RCC, 72 hours
Procedure: as §1, §2, §3, §4, §5

[18] = system: HCC70; details: Homo sapiens; HCC70, BREAST, TNBC, 72 hours
Procedure: as §1, §2, §3, §4, §5

[19] = system: G402; details: Homo sapiens, G-402; G402, RENAL, Renal leiomyoblastoma, 72 hours
Procedure: as §1, §2, §3, §4, §5

[20] = system: SiHa; details: Homo sapiens; SiHa, CERVICAL-SQUAMOUS CELL, 72 hours
Procedure: as §1, §2, §3, §4, §5

[21] = system: MFE296; details: Homo sapiens, MFE-296; MFE296, ENDOMETRIAL, Endometrial, 72 hours
Procedure: as §1, §2, §3, §4, §5

[22] = system: MiaPaCa; details: Homo sapiens, MIA PaCa-2; MiaPaCa, PANCREAS, Pancreatic, 72 hours
Procedure: as §1, §2, §3, §4, §5

[23] = system: HepG2; details: Homo sapiens; HepG2, LIVER, HCC, 72 hours
Procedure: as §1, §2, §3, §4, §5

[24] = system: A498; details: Homo sapiens; A498, RENAL, RCC-VHL mut, 72 hours
Procedure: as §1, §2, §3, §4, §5

[25] = system: MDA-MB-157; details: Homo sapiens; MDA-MB-157, BREAST, Medullary Carcinoma, 72 hours
Procedure: as §1, §2, §3, §4, §5

CC[C@@H](C(=O)Nc1ncc(C(=O)NO)s1)c1ccc(OC)cc1 [#1b, (R)—N-hydroxy-2-(2-(4-methoxyphenyl)butanamido)thiazole-5-carboxamide]
IC50 [1]: 331 nM | IC50 [2]: 2670 nM | IC50 [3]: 91 nM | IC50 [4]: 646 nM | IC50 [5]: 410 nM | IC50 [6]: 465 nM | IC50 [7]: 23 nM | IC50 [8]: 1400 nM | IC50 [9]: 651 nM | IC50 [10]: 851 nM | IC50 [11]: 196 nM | IC50 [12]: 970 nM | IC50 [13]: 612 nM | IC50 [14]: 158 nM | IC50 [15]: 1200 nM | IC50 [16]: 970 nM | IC50 [17]: 736 nM | IC50 [18]: 341 nM | IC50 [19]: 501 nM | IC50 [20]: 2740 nM | IC50 [21]: 204 nM | IC50 [22]: 289 nM | IC50 [23]: 631 nM | IC50 [24]: 352 nM | IC50 [25]: 558 nM

CCC(C(=O)Nc1ncc(C(=O)NO)s1)c1ccc(OC)cc1 (racemic) [#1, N-hydroxy-2-(2-(4-methoxyphenyl)butanamido)thiazole-5-carboxamide]
IC50 [1]: 120 nM | IC50 [2]: 631 nM | IC50 [3]: 26 nM | IC50 [4]: 113 nM | IC50 [5]: 126 nM | IC50 [6]: 215 nM | IC50 [7]: 7 nM | IC50 [8]: 509 nM | IC50 [9]: 269 nM | IC50 [10]: 215 nM | IC50 [11]: 65 nM | IC50 [12]: 372 nM | IC50 [13]: 158 nM | IC50 [14]: 39 nM | IC50 [15]: 363 nM | IC50 [16]: 363 nM | IC50 [17]: 229 nM | IC50 [18]: 100 nM | IC50 [19]: 102 nM | IC50 [20]: 311 nM | IC50 [21]: 52 nM | IC50 [22]: 51 nM | IC50 [23]: 215 nM | IC50 [24]: 63 nM | IC50 [25]: 169 nM
